From patent publication US6579881B2 (Eisai Co., Ltd., priority 1997, dated 2003) come the findings set out here.

Molecules are shown by their SMILES. Where two headings read alike, the source gives them in different places. A value given as a limit tells only on which side of the number the result lay.

In one data set the target is serotonin 2 receptor (Rattus norvegicus, UniProt P14842). Nature of the data set: Binding test on [3H] ketanserin (serotonin 2 receptor). The conditions noted are these: [3H] ketanserin 0.3 nM, receptor fraction of rat cerebral cortex; read-out: 5HT2.
The next data set addresses α1 adrenalin receptor. Nature of the data set: Binding test on [3H] prazosin (α1 adrenalin receptor). The conditions noted are these: [3H] prazosin about 0.2 nM, receptor fraction of rat cerebral cortex. Also noted: species or system rat.
The test system of data set [1] is Straub's tail reaction (hyper-muscle tone in the tail). The data set can be described thus: Morphine induced Straub's tail phenomenon in mice. The class given is in vivo. The note with it: Mus musculus, male ddY mice, 15 min before morphine hydrochloride 12.5 mg/kg s.c., statistically significant (p<0.05).
In another data set the target is T1, serotonin 1A receptor (Rattus norvegicus, UniProt P19327).
T1 construct: To the receptor fraction of the hippocampus were added a test compound and 0.5 nM of [^3H]; 8-hydroxy-dipropylaminotetralin; from tissue; host or cells: SD rat hippocampus, membrane (receptor) fraction
T1 sequence (P19327 1-422): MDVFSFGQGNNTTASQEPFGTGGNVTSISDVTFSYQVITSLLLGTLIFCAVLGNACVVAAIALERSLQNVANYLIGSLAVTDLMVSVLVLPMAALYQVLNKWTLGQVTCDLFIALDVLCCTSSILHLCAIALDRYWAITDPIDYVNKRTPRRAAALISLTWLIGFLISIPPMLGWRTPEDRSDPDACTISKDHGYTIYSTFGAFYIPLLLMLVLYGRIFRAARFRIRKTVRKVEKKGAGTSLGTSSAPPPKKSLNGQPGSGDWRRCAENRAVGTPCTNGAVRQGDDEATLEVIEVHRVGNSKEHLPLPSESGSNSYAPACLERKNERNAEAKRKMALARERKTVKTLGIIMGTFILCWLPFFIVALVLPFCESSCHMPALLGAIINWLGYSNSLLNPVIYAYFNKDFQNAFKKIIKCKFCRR
The data set can be described thus: Binding test on [3H] 8-hydroxy-dipropylaminotetralin (serotonin 1A receptor). The conditions noted are these: [3H] 8-OH-DPAT 0.5 nM, receptor fraction of rat hippocampus; read-out: 5HT1a.

Setting [2] is: ip, i.p., read-out: minimal effective dose i.p.
[3] abbreviates: po, p.o., read-out: minimal effective dose p.o.

Chain of serotonin 2 receptor (P14842 whole entry): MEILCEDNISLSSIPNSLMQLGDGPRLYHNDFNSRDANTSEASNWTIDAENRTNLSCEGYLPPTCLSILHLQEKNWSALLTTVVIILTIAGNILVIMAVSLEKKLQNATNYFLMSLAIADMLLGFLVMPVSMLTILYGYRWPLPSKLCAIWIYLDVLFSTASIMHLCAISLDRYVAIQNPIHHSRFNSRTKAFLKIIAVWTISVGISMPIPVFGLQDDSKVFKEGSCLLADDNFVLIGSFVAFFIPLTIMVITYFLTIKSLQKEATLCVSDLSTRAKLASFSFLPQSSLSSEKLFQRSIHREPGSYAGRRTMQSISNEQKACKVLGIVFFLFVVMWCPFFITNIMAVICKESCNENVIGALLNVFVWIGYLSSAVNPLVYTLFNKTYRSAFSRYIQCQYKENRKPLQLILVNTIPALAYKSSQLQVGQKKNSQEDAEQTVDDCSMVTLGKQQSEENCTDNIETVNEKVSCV

The molecule `CC(=O)NCc1ccc2ccn(C3CCN(CCc4ccc(F)cc4)CC3)c2c1` [Example 285, 1-[1-(4-fluorophenethyl)piperidin-4-yl]-6-acetamidomethylindole] showed a melting point of 127 to 128 °C. Also, the Ki at serotonin 2 receptor came to 1.39 nM. Also, at α1 adrenalin receptor, the Ki was 26.8 nM. In addition, the minimal effective dose in data set [1] (setting [2]) was 1 mg/kg. Also, the minimal effective dose in data set [1] (setting [3]) amounted to 1 mg/kg. For the same molecule, on serotonin 1A receptor, the Ki worked out at 0.44 nM.

On to `COc1ccc2c(c1)CCCC2C1CCN(CCc2ccc(F)cc2)CC1` (centres unmarked) [Example 277, 1-[2-(4-fluorophenyl)ethyl]-4-(6-methoxy-1,2,3,4-tetrahydronaphthalen-1-yl)piperidine], for which the Ki on serotonin 2 receptor stood at 3.9 nM; at α1 adrenalin receptor it was 354 nM; at serotonin 1A receptor, 22.8 nM. The minimal effective dose in data set [1] (setting [2]) was below 1 mg/kg; in data set [1] (setting [3]), 30 mg/kg.

As to `NS(=O)(=O)c1ccc(CCN2CCC(N3CCc4ccccc43)CC2)cc1` [Example 42, 1-[1-(4-sulfamoylphenethyl)piperidin-4-yl]indoline], the Ki at serotonin 2 receptor stood at 5.7 nM; on α1 adrenalin receptor it was 230 nM; at serotonin 1A receptor it was 35.8 nM. In addition, the minimal effective dose in data set [1] (setting [2]) is at most 10 mg/kg; in data set [1] (setting [3]) it was 10 mg/kg.

With `NC(=O)Cc1ccc2c(c1)N(C1CCN(CCc3ccc(F)cc3)CC1)CC2` [Example 147, 1-[1-(4-fluorophenethyl)piperidin-4-yl]-6-carbamoylmethylindoline], the Ki at serotonin 2 receptor amounted to 0.77 nM; on α1 adrenalin receptor, 157 nM; on serotonin 1A receptor, 1.31 nM. Further, the values for the minimal effective dose in data set [1] (setting [2]) and in data set [1] (setting [3]) were at most 0.3 mg/kg and at most 3 mg/kg, respectively.

Turning to `Fc1ccc(CCN2CCC(N3CCc4ccc(F)cc43)CC2)cc1` [Example 103, 1-[1-(4-fluorophenethyl)piperidin-4-yl]-6-fluoroindoline], the Ki on serotonin 2 receptor is 15.8 nM; at α1 adrenalin receptor, 77.7 nM; on serotonin 1A receptor, 3.9 nM. In addition, the values for the minimal effective dose in data set [1] (setting [2]) and in data set [1] (setting [3]) were at most 10 mg/kg and above 30 mg/kg, respectively.

Turning to `CC(c1ccc2c(c1)N(C1CCN(CCc3ccc(F)cc3)CC1)CC2)c1ccccn1` (centres unmarked) [Example 182, 1-[1-(4-fluorophenethyl)piperidin-4-yl]-6-[1-(2-pyridyl)ethyl]indoline], the Ki at serotonin 2 receptor is 2.91 nM; at α1 adrenalin receptor it was 70.1 nM; on serotonin 1A receptor, 4.28 nM. In data set [1] (setting [3]), the minimal effective dose stood at 10 mg/kg.

As to `OCCOc1ccc2c(c1)N(C1CCN(CCc3ccc(F)cc3)CC1)CC2` [Example 121, 1-[1-(4-fluorophenethyl)piperidin-4-yl]-6-hydroxyethoxyindoline], the Ki stood at 22.8 nM at serotonin 2 receptor, 58.2 nM at α1 adrenalin receptor and 0.5 nM at serotonin 1A receptor. The minimal effective dose in data set [1] (setting [3]) was determined as 10 mg/kg.

In the case of `OC(c1ccc2c(c1)N(C1CCN(CCc3ccc(F)cc3)CC1)CC2)c1ncccn1` (centres unmarked) [Example 197, 1-[1-(4-fluorophenethyl)piperidin-4-yl]-6-[1-hydroxy-1-(pyrimidin-2-yl)methyl]indoline], the results for the Ki at serotonin 2 receptor, at α1 adrenalin receptor and on serotonin 1A receptor were 1.27 nM, 68.6 nM and 10.4 nM, respectively. In addition, in data set [1] (setting [3]), the minimal effective dose was found to be 10 mg/kg.

For the molecule `CC(=O)NCc1ccc(CCN2CCC(N3CCc4ccccc43)CC2)cc1` [Example 36, 1-[1-(4-acetamidomethylphenethyl)piperidin-4-yl]indoline], the Ki was 14.9 nM at serotonin 2 receptor, 39 nM on α1 adrenalin receptor and 4.5 nM at serotonin 1A receptor. Besides, the minimal effective dose in data set [1] (setting [2]) was 1 mg/kg; in data set [1] (setting [3]), at most 3 mg/kg.

As to `O=C1CCC(=O)N1Cc1ccc2c(c1)N(C1CCN(CCc3ccc(F)cc3)CC1)CC2` [Example 204, 1-[1-(4-fluorophenethyl)piperidin-4-yl]-6-(succinimido-1-yl)methylindoline], the Ki turned out to be 4.49 nM at serotonin 2 receptor, 183 nM on α1 adrenalin receptor and 1.06 nM on serotonin 1A receptor. The minimal effective dose in data set [1] (setting [2]) and in data set [1] (setting [3]) was 3 mg/kg each time.

Consider `CC(=O)NCCc1ccc2c(c1)N(C1CCN(CCc3ccc(F)cc3)CC1)CC2` [Example 166, 1-[1-(4-fluorophenethyl)piperidin-4-yl]-6-acetamidoethylindoline], for which the figures for the Ki at serotonin 2 receptor, on α1 adrenalin receptor and on serotonin 1A receptor were 17.1 nM, 194 nM and 0.79 nM, respectively. Further, the minimal effective dose in data set [1] (setting [2]) and in data set [1] (setting [3]) was 3 mg/kg in each case.

Turning to `CCNC(=O)Cc1ccc2c(c1)N(C1CCN(CCc3ccc(F)cc3)CC1)CC2` [Example 149, 1-[1-(4-fluorophenethyl)piperidin-4-yl]-6-(ethylcarbamoylmethyl)indoline], the values for the Ki on serotonin 2 receptor, at α1 adrenalin receptor and on serotonin 1A receptor were 0.5 nM, 304 nM and 7.44 nM, respectively. For the same molecule, the minimal effective dose in data set [1] (setting [2]) was 1 mg/kg; in data set [1] (setting [3]), at most 3 mg/kg.

Regarding `Fc1ccc(CCN2CCC(N3CCc4ccccc43)CC2)cc1` [Example 9, 1-[1-(4-fluorophenethyl)piperidin-4-yl]indoline], the values for the Ki on serotonin 2 receptor, at α1 adrenalin receptor and at serotonin 1A receptor were 11.6 nM, 76.5 nM and 3 nM, respectively. In addition, the minimal effective dose in data set [1] (setting [2]) stood at 10 mg/kg.

In the case of `NC(=O)c1ccc2c(c1)N(C1CCN(CCc3ccc(F)cc3)CC1)CC2` [Example 125, 1-[1-(4-fluorophenethyl)piperidin-4-yl]-6-carbamoylindoline], the Ki amounted to 4.76 nM at serotonin 2 receptor, 46.4 nM on α1 adrenalin receptor and 0.1 nM at serotonin 1A receptor. In addition, the minimal effective dose is 1 mg/kg in data set [1] (setting [2]) and 3 mg/kg in data set [1] (setting [3]).

On to `COc1ccc(Cc2ccc3c(c2)N(C2CCN(CCc4ccc(F)cc4)CC2)CC3)cn1` [Example 189, 1-[1-(4-fluorophenethyl)piperidin-4-yl]-6-[1-(2-methoxypyridin-5-yl)methyl]indoline], for which the Ki worked out at 2.02 nM at serotonin 2 receptor, 442 nM at α1 adrenalin receptor and 7.72 nM at serotonin 1A receptor. For the same molecule, in data set [1] (setting [3]), the minimal effective dose was 10 mg/kg.

As a reminder, the melting point is the temperature, or range, at which the solid turns liquid. As a reminder, the minimal effective dose is the lowest level tested that produced the effect sought.
